Like-named read-outs stand apart in the source and are kept apart here.
How the values were obtained:
isolated rabbit hearts [1] = test: cardiokinetic effect on isolated heart (Langendorff): contractile force after anoxia, positive inotropic effect; conditions: 10 minutes from interruption of anoxic period
Protocol: (§1) The cardiokinetic effect on isolated heart was also investigated as follows. Rabbit hearts isolated by the Langendorff method were perfused with oxygenized ringer solution at 38.2° C. The isometric contractions, electrocardiogram and coronary flow were recorded using a "Battaglia-Rangoni" polygraph. By removing the oxygen from the perfusion fluid, metabolic damage was induced in the cardia muscle, up to an 80% reduction in the cardiac contractile force.
(§2) Under these conditions of prolonged anoxia the aerobic glycolysis of the myocardium is slowed down, accompanied by the storage of acid catabolites due to both the accumulation of pyruvic acid and its conversion to lactic acid which cannot be utilized because of the depression of pyridine enzymes, such as LDH (lactodehydrogenase). This has repercussions on the anaerobic glycolysis affecting an ever increasing number of enzymes, accompanied by a progressive and increasingly critical exhaustion of the myocardium. Thus a whole series of cardiac muscle fatigue levels occurs which can be observed by the behavior of the examined parameters, namely the contractile force, coronary flow, heart rate and cardiac rhythm. As soon as the contractile force was reduced by 80%, the perfusion fluid was once again oxygenized either without adding other compounds (controls) or with the addition of the compounds under examination.
Table 3 below gives the percentage values of the contractile force of the heart, showing a positive inotropic effect, calculated after 10 minutes from the interruption of the anoxic period (myocardial restoration).

female rats = test: antifatigue effect: rota-rod; format: in vivo, rat; conditions: Rattus norvegicus, ip, 0.25 h, read-out: percentage of animals staying on the rota-rod more than 180 seconds; for responders at 300 mg/kg: 300 mg/kg i.p.; for responders at 400 mg/kg: 400 mg/kg i.p.; for responders at 600 mg/kg: 600 mg/kg i.p.
Protocol: The antifatigue effect was also examined with the following results. The antifatigue effect was investigated by administering the compounds of the formula (I) according to the present application to female rats intraperitoneally in saline solution and saline solution alone to the controls by the same route. Every 15 minutes (sessions) after treatment, the animals were placed on a 6 cm diameter rod, rotating at 16 r.p.m. The percentage of the animals capable of staying on the rota-rod for a duration of more than 180 seconds was then recorded.

isolated rabbit hearts [2] = test: coronary vasodilator effect: coronary flow, isolated heart (Langendorff)
Protocol: as §1, §2

isolated rat atrium = test: antiarrhythmic effect, isolated rat atrium method of M. Libonati and G. Segre; conditions: Rattus norvegicus; for inhibition at 0.1 µg/mL / activation at 0.1 µg/mL: 1·10^-4 g/lt; for inhibition at 0.1 µg/mL / inhibition at 0.01 µg/mL / inhibition at 0.001 µg/mL: decrease; for activation at 0.1 µg/mL / activation at 0.01 µg/mL / activation at 0.001 µg/mL: increase; for inhibition at 0.01 µg/mL / activation at 0.01 µg/mL: 1·10^-5 g/lt; for inhibition at 0.001 µg/mL / activation at 0.001 µg/mL: 1·10^-6 g/lt
[3] = session 6 (every 15 minutes), * p < 0.05
[4] = read-out: Mean percent variation versus controls: excitability (-%)
[5] = read-out: Mean percent variation versus controls: frequency max (-%)
[6] = read-out: Mean percent variation versus controls: refractory period (+%)
[7] = read-out: Mean percent variation versus controls: rheobase (+%)

Compound	Contractile force, Mean ± S.E. (isolated rabbit hearts [1]; 1·10^-5 g/lt) [%]	Contractile force, Mean ± S.E. (isolated rabbit hearts [1]; 1·10^-6 g/lt) [%]	Contractile force, Mean ± S.E. (isolated rabbit hearts [1]; 5·10^-6 g/lt) [%]	responders at 300 mg/kg (female rats; session 1 (every 15 minutes)) [%]	responders at 300 mg/kg (female rats; session 2 (every 15 minutes)) [%]	responders at 300 mg/kg (female rats; session 3 (every 15 minutes)) [%]	responders at 300 mg/kg (female rats; session 4 (every 15 minutes)) [%]	responders at 300 mg/kg (female rats; session 5 (every 15 minutes)) [%]	responders at 300 mg/kg (female rats; session 6 (every 15 minutes)) [%]	responders at 400 mg/kg (female rats; session 1 (every 15 minutes)) [%]	responders at 400 mg/kg (female rats; session 2 (every 15 minutes)) [%]	responders at 400 mg/kg (female rats; session 3 (every 15 minutes)) [%]	responders at 400 mg/kg (female rats; session 4 (every 15 minutes)) [%]	responders at 400 mg/kg (female rats; session 5 (every 15 minutes)) [%]	responders at 400 mg/kg (female rats; [3]) [%]	responders at 600 mg/kg (female rats; session 1 (every 15 minutes)) [%]	responders at 600 mg/kg (female rats; session 2 (every 15 minutes)) [%]	responders at 600 mg/kg (female rats; session 3 (every 15 minutes)) [%]	responders at 600 mg/kg (female rats; session 4 (every 15 minutes)) [%]	responders at 600 mg/kg (female rats; session 5 (every 15 minutes)) [%]	also measured
CCCCCC(=O)OC(CC(=O)[O-])C[N+](C)(C)C (racemic) [hexanoyl-d,l-carnitine]	38.0 ± 4.80	24.2 ± 3.88	28.8 ± 3.16	0	0	0	0	10	10	0	0	0	0	10	10	0	0	10	10	20	responders at 600 mg/kg (female rats; [3]): 30%; Coronary flow, Mean ± S.E. (isolated rabbit hearts [2]; 1·10^-5 g/lt): 84.08 ± 5.14%; Coronary flow, Mean ± S.E. (isolated rabbit hearts [2]; 1·10^-6 g/lt): 76.25 ± 4.75%; Coronary flow, Mean ± S.E. (isolated rabbit hearts [2]; 5·10^-6 g/lt): 75.28 ± 8.36%; inhibition at 0.1 µg/mL (isolated rat atrium; [4]): 26.3%; inhibition at 0.1 µg/mL (isolated rat atrium; [5]): 25.1%; activation at 0.1 µg/mL (isolated rat atrium; [6]): 21.7%; activation at 0.1 µg/mL (isolated rat atrium; [7]): 21.7%; inhibition at 0.01 µg/mL (isolated rat atrium; [4]): 18.2%; inhibition at 0.01 µg/mL (isolated rat atrium; [5]): 12.3%; activation at 0.01 µg/mL (isolated rat atrium; [6]): 12.7%; activation at 0.01 µg/mL (isolated rat atrium; [7]): 10.1%; inhibition at 0.001 µg/mL (isolated rat atrium; [4]): 12.4%; inhibition at 0.001 µg/mL (isolated rat atrium; [5]): 8.71%; activation at 0.001 µg/mL (isolated rat atrium; [6]): 9.04%; activation at 0.001 µg/mL (isolated rat atrium; [7]): 6.2%
CCCCCCCCCC(=O)OC(CC(=O)[O-])C[N+](C)(C)C (racemic) [decanoyl-d,l-carnitine]	36.3 ± 6.53	26.9 ± 5.02	29.1 ± 3.12	0	0	0	10	10	10	0	0	0	10	10	10	0	0	0	10	10	responders at 600 mg/kg (female rats; [3]): 20%; Coronary flow, Mean ± S.E. (isolated rabbit hearts [2]; 1·10^-5 g/lt): 83.21 ± 5.70%; Coronary flow, Mean ± S.E. (isolated rabbit hearts [2]; 1·10^-6 g/lt): 76.30 ± 9.42%; Coronary flow, Mean ± S.E. (isolated rabbit hearts [2]; 5·10^-6 g/lt): 72.60 ± 12.4%; inhibition at 0.1 µg/mL (isolated rat atrium; [4]): 25.2%; inhibition at 0.1 µg/mL (isolated rat atrium; [5]): 24.8%; activation at 0.1 µg/mL (isolated rat atrium; [6]): 21.6%; activation at 0.1 µg/mL (isolated rat atrium; [7]): 21.2%; inhibition at 0.01 µg/mL (isolated rat atrium; [4]): 17.2%; inhibition at 0.01 µg/mL (isolated rat atrium; [5]): 12%; activation at 0.01 µg/mL (isolated rat atrium; [6]): 10.3%; activation at 0.01 µg/mL (isolated rat atrium; [7]): 9.54%; inhibition at 0.001 µg/mL (isolated rat atrium; [4]): 0%; inhibition at 0.001 µg/mL (isolated rat atrium; [5]): 8.66%; activation at 0.001 µg/mL (isolated rat atrium; [6]): 9.14%; activation at 0.001 µg/mL (isolated rat atrium; [7]): 3.12%
